Measured values taken from patent US20100048733A1, “PENETRATION ENHANCER FOR FUNGICIDES” (Bayer CropScience AG, priority 2006, published 2010).
“Also recorded” adds a separate entry of the source.

Key:
[1] = tested on: crop plant; assay: Crop plant tolerance tests; assay type: in vivo; conditions: compared with other alkyl ester additives; no data shown
[2] = Penetration test: active substance penetration through enzymatically isolated apple leaf cuticles in diffusion cells, radioactively marked active substance; assay type: in vitro ADME, apple trees of the Golden Delicious variety
Protocol: In this test, the penetration of active substances through enzymatically isolated cuticles of apple tree leaves was measured.
Leaves which were cut off in the stage of full development of apple trees of the Golden Delicious variety were used. The isolation of the cuticles was effected in a manner such that • first, leaf disks marked on the underside with dye and punched out were filled by means of vacuum infiltration with a pectinase solution (0.2 to 2% strength by weight) buffered to a pH between 3 and 4, • sodium azide was then added and • the leaf disks thus treated were allowed to stand until disintegration of the original leaf structure and detachment of the noncellular cuticle.
Thereafter, only those cuticles of the upper sides of the leaves which were free of stomata and hairs were further used. They were washed several times alternately with water and a buffer solution at pH 7. The cleaned cuticles obtained were finally drawn onto small Teflon plates and smoothed and dried with a gentle air jet.
In the next step, the cuticle membranes thus obtained were placed in stainless steel diffusion cells (=transport chambers) for membrane transport investigations. For this purpose, the cuticles were placed by means of forceps centrally on the silicone grease-coated edges of the diffusion cells and closed with a likewise greased ring. The arrangement was chosen so that the morphological outside of the cuticles faced outward, i.e. toward the air, while the original inside faced the interior of the diffusion cell. The diffusion cells were filled with water or with a mixture of water and solvent.
For determining the penetration, in each case 10 μl of a spray liquor of the composition mentioned in the examples were applied to the outside of a cuticle.
In each case the solvents listed below in the table (tap water or a mixture with 20% by weight of acetone/80% by weight of tap water) were used in the spray liquors.
After the application of the spray liquors, in each case the solvent was allowed to evaporate, and in each case the chambers were then turned around and placed in thermostated trays, air having a defined temperature and atmospheric humidity being blown onto the outside of the cuticle. The incipient penetration therefore took place at a relative humidity of 60% and a set temperature of 20 or 25° C. The active substance penetration was measured with radioactively marked active substance.

[3] = penetration of tebuconazole 0.3 g/l, without or with 2.0 g/l penetration enhancer, acetone/tap water 20/80% by weight, apple leaf cuticles, T = 20-25° C., rel. humidity 56-60%, mean of 4-8 repetitions

In the case of `CCCCOCCOP(=O)(OCCOCCCC)OCCOCCCC` [TBEP, tributoxyethyl phosphate], the Crop plant tolerance [1] is reported as “more tolerant than other alkyl ester additives” and the “Effect of the penetration enhancer on uptake of the active substances (in words)” value ([2]; summary of tables 1 and 2, 2.0 g/l TBEP with 0.3 g/l fungicide) is reported as “considerable increase in uptake of the active substances; also recorded: advantageously higher increase in uptake of active substances than the penetration enhancers of the prior art”.

With `O=C(NCc1ncc(C(F)(F)F)cc1Cl)c1c(Cl)cccc1Cl` [fluopicolid, 2,6-dichloro-N-[[3-chloro-5-(trifluoromethyl)-2-pyridinyl]methyl]benzamide] the “% Penetration (after hours): 3 hours” value ([2]; apple tree, 3 h, 0.3 g/l) was 0.1 (3) % and the “% Penetration (after hours): 24 hours” value ([2]; apple tree, 24 h, 0.3 g/l) was 0.6 (24) %.

In the case of `OC(Cc1ccccc1Cl)(Cn1nc[nH]c1=S)C1(Cl)CC1` (centres unmarked) [prothioconazole], the “% Penetration (after hours): 3 hours” value ([2]; after 3 h, 0.3 g/l active substance, without or with 2.0 g/l TBEP, acetone/tap water 20/80% by weight, apple leaf cuticles, T = 20-25° C., rel. humidity 56-60%, mean of 4-8 repetitions) is reported as 0.04 (3) % and the “% Penetration (after hours): 24 hours” value ([2]; after 24 h, 0.3 g/l active substance, without or with 2.0 g/l TBEP, acetone/tap water 20/80% by weight, apple leaf cuticles, T = 20-25° C., rel. humidity 56-60%, mean of 4-8 repetitions) is reported as 0.6 (24) %.

In the case of `CC(C)(C)C(O)(CCc1ccc(Cl)cc1)Cn1cncn1` (centres unmarked) [tebuconazole], the “% Penetration (after 3 hours)” value [2, 3] is reported as 0.9% and the “% Penetration (after 24 hours)” value [2, 3] is reported as 1.1%.
